Measurements: patent US9308260B2, “Anticonvulsive pharmaceutical compositions” (INSERM (INSTITUT NATIONAL DE LA SANTE ET DE LA RECHERCHE …, priority 2007, dated 2016)
Entries after “also recorded” stand apart in the source; their conditions may differ.

Assays:
[1] = Blood/plasma amino acid concentrations in vigabatrin-treated rats; format: in vivo, rat
Protocol: (§1) As described previously (Duboc et al., 2004), Wistar rats Rj Wi IOPS Han and Balb c mice were purchased from Janvier Breeding Center (Le Genest St Isle, France) at 7 weeks. VGB was dissolved in 0.9% NaCl at a concentration of 125 mg/ml. It was administered at 40 mg (125 mg/ml, 0.32 ml) by daily intraperitoneal injection for 45 or 65 days and at 3 mg (60 mg/ml, 0.05 ml) to mice for 29 days (daily dose of about 200 mg/kg in rats and 150 mg/kg in mice). Vitamin B6 (active form) was administered at a dose of 1 mM/kg (solution 154.46 mg/ml) whereas taurine was provided in the drinking water at 0.1 mol/l.
After 65 days of injection, rats were anesthetized for blood sampling. Anesthesia was induced as described above. Under anesthesia an indwelling catheter was placed in the carotid artery. This method allowed obtaining a single, large, good quality blood sample. A 1 mL blood sampling was taken for each rat in a heparinized blood sampler, immediately centrifuged and frozen at −80° C. Automated amino acid ion chromatography (Pasteur Cerba, France) was used for the quantitative determination of total and free amino acids in the samples.
As described previously (Duboc, A., et al. Vigabatrin, the GABA-transaminase inhibitor, damages cone photoreceptors in rats. Annals of neurology Vol. 55, 695-705 (2004).), Wistar rats Rj Wi IOPS Han or BALB/c mice were purchased from Janvier (Le Genest-St-Isle, France) at between six and seven weeks of age. VGB dissolved in 0.9% NaCl was administered at 40 mg (125 mg/ml, 0.32 ml) to rats by daily intraperitoneal injection for 45 or 65 days and at 3 mg (60 mg/ml, 0.05 ml) to mice for 29 days. These daily doses (rats: 200 mg/kg; mice: 150 mg/kg) are in-line with those described for the treatment of epilepsy in animals (Andre, V., Ferrandon, A., Marescaux, C. & Nehlig, A. Vigabatrin protects against hippocampal damage but is not antiepileptogenic in the lithium-pilocarpine model of temporal lobe epilepsy. Epilepsy research Vol. 47, 99-117 (2001)) or in humans (adult patients: 1-6 mg/kg; children: 50-75 mg/kg; or infants: 100-400 mg/kg) (Chiron, C., Dumas, C., Jambaque, I., Mumford, J. & Dulac, O. Randomized trial comparing vigabatrin and hydrocortisone in infantile spasms due to tuberous sclerosis. Epilepsy research Vol. 26, 389-395 (1997); Lux, A. L., et al. The United Kingdom Infantile Spasms Study comparing vigabatrin with prednisolone or tetracosactide at 14 days: a multicentre, randomised controlled trial. Lancet Vol. 364, 1773-1778 (2004); Aicardi, J., Mumford, J. P., Dumas, C. & Wood, S. Vigabatrin as initial therapy for infantile spasms: a European retrospective survey. Sabril IS Investigator and Peer Review Groups. Epilepsia Vol. 37, 638-642 (1996)). Taurine supplementation was given in drinking water at a concentration of 0.1M. […]

[2] = system: BALB/c mice; assay: Photopic electroretinogram (ERG) in vigabatrin-treated mice; format: in vivo, mouse; settings: 29 days
Protocol: as §1
(§2) ERG were recorded as described previously after the last VGB injection (Duboc et al., 2004). Anesthesia was induced by an intramuscular injection of a solution containing ketamine (100 mg/kg) and xylazine (10 mg/kg). After 10 min adaptation to a 2.5 cdm^−2 light intensity, ten recordings were obtained with flash intensity of 10 cdsm^−2 at an interstimulus interval 30 s and subsequently averaged. These photopic ERG measurements were performed after 59 days in rats and 29 days in mice.
(§3) As described previously (Duboc, A., et al. Vigabatrin, the GABA-transaminase inhibitor, damages cone photoreceptors in rats. Annals of neurology Vol. 55, 695-705 (2004).), Wistar rats Rj Wi IOPS Han or BALB/c mice were purchased from Janvier (Le Genest-St-Isle, France) at between six and seven weeks of age. VGB dissolved in 0.9% NaCl was administered at 40 mg (125 mg/ml, 0.32 ml) to rats by daily intraperitoneal injection for 45 or 65 days and at 3 mg (60 mg/ml, 0.05 ml) to mice for 29 days. These daily doses (rats: 200 mg/kg; mice: 150 mg/kg) are in-line with those described for the treatment of epilepsy in animals (Andre, V., Ferrandon, A., Marescaux, C. & Nehlig, A. Vigabatrin protects against hippocampal damage but is not antiepileptogenic in the lithium-pilocarpine model of temporal lobe epilepsy. Epilepsy research Vol. 47, 99-117 (2001)) or in humans (adult patients: 1-6 mg/kg; children: 50-75 mg/kg; or infants: 100-400 mg/kg) (Chiron, C., Dumas, C., Jambaque, I., Mumford, J. & Dulac, O. Randomized trial comparing vigabatrin and hydrocortisone in infantile spasms due to tuberous sclerosis. Epilepsy research Vol. 26, 389-395 (1997); Lux, A. L., et al. The United Kingdom Infantile Spasms Study comparing vigabatrin with prednisolone or tetracosactide at 14 days: a multicentre, randomised controlled trial. Lancet Vol. 364, 1773-1778 (2004); Aicardi, J., Mumford, J. P., Dumas, C. & Wood, S. Vigabatrin as initial therapy for infantile spasms: a European retrospective survey. Sabril IS Investigator and Peer Review Groups. Epilepsia Vol. 37, 638-642 (1996)). Taurine supplementation was given in drinking water at a concentration of 0.1M. Light intensity in the animal cages ranged between 125 and 130 lux for rats and between 70 and 85 lux for mice.
Photopic ERGs were recorded after the last VGB injection, as described previously (Duboc, A., et al. Vigabatrin, the GABA-transaminase inhibitor, damages cone photoreceptors in rats. Annals of neurology Vol. 55, 695-705 (2004).). Anesthesia was induced by intraperitoneal injection (0.8 to 1.2 ml/kg) of a solution containing ketamine (40 mg/ml) and xylazine (4 mg/ml Rompum). Animals were light-adapted for 10 minutes with a background light of 25 cdm^−2. Light flashes were then applied on this background light; the light intensity of the flash was 10 cdsm^−2 for the mouse experiments and for the rats maintained in darkness (FIGS. 2, 6) or 25 cdsm^−2 for other experiments (FIGS. 3, 5). Ten recordings were averaged with an interstimulus interval of 30 s.

[3] = Plasma taurine levels in infants with infantile spasms receiving VGB therapy; format: in vivo, human; settings: for Taurine level: measured
Protocol: Blood samples were collected in haemolysis tubes containing heparin (14 IU/ml) and centrifuged (2200 g, 15 min). Plasma amino-acid analysis was performed by ion-exchange chromatography with nihydrin detection using a JEOL AMINOTAC analyser.
We then evaluated whether these findings have any clinical relevance in patients with epilepsy. Plasma taurine levels were reviewed retrospectively in patients presenting infantile spasms, who had received VGB treatment for at least six months in Necker Hospitals for the last 3 years. Plasma amino-acid levels are routinely measured in patients with infantile spasms as part of their etiological work-up, particularly when brain RMI is negative. Data were available in six patients (Table 2 hereunder). […] For one of these two patients (patient 2), the taurine level was measured before starting a 15 month period of VGB therapy and this taurine level was normal. In patient 6, the taurine level was in the lower part of the normal range, but this measurement could have been overestimated by the delayed blood centrifugation. Thus, taurine levels seem to be decreased in VGB-treated epileptic infants.

[4] = system: BALB/c mice; assay: Retinal histology quantification in vigabatrin-treated mice; format: in vivo, mouse
Protocol: as §3
Eye cups were fixed overnight at 4° C. in 4% (wt/vol) paraformaldehyde in phosphate buffered saline (PBS; 0.01M, pH 7.4). The tissue was cryoprotected in successive solutions of PBS containing 10%, 20% and 30% sucrose at 4° C., oriented along the dorso-ventral axis and embedded in OCT (Labonord, Villeneuve d′Ascq, France). Retinal sections (8-10 μm thickness) were permeabilised for five minutes in PBS containing 0.1% Triton X-100 (Sigma, St. Louis, Mo.), rinsed, and incubated in PBS containing 1% bovine serum albumin (Eurobio, Les-Ulis, France), 0.1% Tween 20 (Sigma), and 0.1% sodium azide (Merck, Fontenay-Sous-Bois, France) for two hours at room temperature. The primary antibody added to the solution was incubated for two hours at room temperature. Polyclonal antibodies were directed against VGluT1 (1:2000, Chemicon), rabbit GFAP (1/400, Dako, USA) and mouse cone arrestin (Zhu, X., et al. Mouse cone arrestin expression pattern: light induced translocation in cone photoreceptors. Molecular vision Vol. 8, 462-471 (2002)) (Luminaire junior, LUMIj, 1:20,000). Monoclonal antibodies were directed against Goa (1:2000, Chemicon). Sections were rinsed and then incubated with the secondary antibody, goat anti-rabbit IgG or rabbit anti-mouse IgG conjugated to either Alexa TM594 or Alexa TM488 (1:500, Molecular Probes, Eugene, Oreg.) for two hours. […]
(§4) For quantification, vertical sections along the dorso-ventral axis were selected at the optic nerve. Following DAPI nuclear staining, the lengths of disorganised retinal areas were measured; GFAP immunostaining was used for detection and quantificationof retinal areas with reactive gliosis. […]

[5] = system: Wistar rats; assay: Retinal histology quantification in vigabatrin-treated rats; format: in vivo, rat
Protocol: as §3, with “mice. […]” for “mice.”
as §4

[6] = system: Wistar rats; assay: Photopic electroretinogram (ERG) in vigabatrin-treated rats; format: in vivo, rat
Protocol: as §1, §2
As described previously (Duboc, A., et al. Vigabatrin, the GABA-transaminase inhibitor, damages cone photoreceptors in rats. Annals of neurology Vol. 55, 695-705 (2004).), Wistar rats Rj Wi IOPS Han or BALB/c mice were purchased from Janvier (Le Genest-St-Isle, France) at between six and seven weeks of age. VGB dissolved in 0.9% NaCl was administered at 40 mg (125 mg/ml, 0.32 ml) to rats by daily intraperitoneal injection for 45 or 65 days and at 3 mg (60 mg/ml, 0.05 ml) to mice for 29 days. […]
Photopic ERGs were recorded after the last VGB injection, as described previously (Duboc, A., et al. Vigabatrin, the GABA-transaminase inhibitor, damages cone photoreceptors in rats. Annals of neurology Vol. 55, 695-705 (2004).). […]

[7] = vigabatrin alone versus control, listed as Vigabatrin
[8] = vigabatrin alone versus control, listed as vigabatrin
[9] = supplementation in addition to vigabatrin
[10] = VGB with taurine supplementation versus without, p<0.001

C=CC(N)CCC(=O)O (stereo not drawn) [VGB, 4-amino-5-hexenoic acid]
Decrease of taurine level versus control animals ([1]; VGB-treated rats, 65 days, p<0.05): 67%
Reduction of methionine concentration versus control animals ([1]; VGB-treated rats, 65 days, significant): 22%
Reduction of glutamic acid concentration versus control animals ([1]; VGB-treated rats, 65 days, statistically significant): 56%
Photopic ERG amplitude ([2]; vigabatrin alone versus control): significantly lower photopic ERG amplitude than the control group
Photopic ERG amplitude [2, 7]: decrease
Photopic ERG amplitude [2, 8]: decrease in amplitude
Taurine level ([3]; patient 1, VGB, normal 70 ± 22, delay to plasma preparation <2 h): und*
Taurine level ([3]; patient 2, VGB, normal 70 ± 22, delay <2 h): und
Taurine levels in VGB-treated epileptic infants (overall) ([3]; six patients, VGB for at least six months): decreased
Sprouting of bipolar cell dendrites ([4]; VGB alone): observed
Density of cone outer and inner segments ([4]; VGB alone versus control, p<0.001): lower densities
GFAP immunostaining ([5]; VGB alone): increase in GFAP immunostaining
Photopic ERG amplitude [6, 7]: decrease
Photopic ERG amplitude [6, 8]: decrease in amplitude

Cc1ncc(COP(=O)(O)O)c(C=O)c1O [vitamin B6, pyridoxal-5′-phosphate]
Photopic ERG amplitude [2, 9]: reduced the decrease in photopic ERG amplitude; also recorded: smaller decrease in photopic ERG than with vigabatrin alone

NCCS(=O)(=O)O [taurine, 2-aminoethanesulfonic acid]
Plasma levels of taurine ([1]; taurine 0.1M in drinking water of VGB-treated rats, n=7): increased above those of control animals
Photopic ERG amplitude [2, 9]: no longer statistically significant; also recorded: smaller decrease in photopic ERG amplitude
Photopic ERG amplitude ([2]; supplementation in addition to vigabatrin, listed as Taurine): suppressed this decrease in photopic ERG amplitude
Sprouting of bipolar cell dendrites ([4]; VGB with taurine supplementation): completely suppressed
Disorganisation of the outer nuclear layer (areas of retinal disorganisation) [4, 10]: smaller areas of retinal disorganisation
Density of cone outer and inner segments ([4]; VGB with taurine supplementation, p<0.001): prevented this decrease in cone density
GFAP immunostaining [5, 10]: less extensive in animals receiving taurine supplementation
Cone segment density ([5]; VGB with taurine supplementation versus without, p<0.05): greater in the VGB-treated group with taurine supplementation
Photopic ERG amplitude ([6]; supplementation in addition to vigabatrin, versus vigabatrin alone): decreased less than in vigabatrin alone; also recorded: greater in VGB-treated animals receiving taurine supplementation; also recorded: smaller decrease in photopic ERG amplitude
